Laboratory results: PubChem BioAssay (NCI)
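Five concentrations, 48 hours, 96-well plates. Definition used: TGI = concentration required for complete inhibition of growth.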

Columns and labels:
Assay in all cases: NCI tumour cell line growth inhibition, 48 h
[1] = test system: UACC-62 melanoma
[2] = test system: EKVX NSCLC
[3] = test system: RPMI-8226 leukemia
[4] = test system: SF-295 CNS
[5] = test system: HL-60(TB) leukemia
[6] = test system: SNB-19 CNS
[7] = test system: TK-10 renal
[8] = test system: OVCAR-5 ovarian
[9] = test system: A549 NSCLC
[10] = test system: IGROV1 ovarian
[11] = test system: HT29 colon
[12] = test system: OVCAR-4 ovarian
[13] = test system: COLO 205 colon
[14] = test system: MDA-N
[15] = test system: MDA-MB-231 breast
[16] = test system: OVCAR-8 ovarian
[17] = test system: NCI/ADR-RES ovarian
[18] = test system: UACC-257 melanoma
[19] = test system: SK-OV-3 ovarian
[20] = test system: SW-620 colon
[21] = test system: U251 CNS
[22] = test system: SN12C renal
[23] = test system: T-47D breast
[24] = test system: HS 578T breast
[25] = test system: HCT-116 colon
[26] = test system: UO-31 renal
[27] = test system: RXF 393 renal
[28] = test system: M14 melanoma
[29] = test system: MDA-MB-435
[30] = test system: NCI-H226 lung
[31] = test system: HCC-2998 colon
[32] = test system: SK-MEL-28 melanoma
[33] = test system: SK-MEL-5 melanoma
[34] = test system: CAKI-1 renal
[35] = test system: MOLT-4 leukemia
[36] = test system: SR leukemia
[37] = test system: 786-0 renal
[38] = test system: NCI-H522 lung
[39] = test system: PC-3 prostate
[40] = test system: MCF7 breast
[41] = test system: HOP-92 NSCLC
[42] = test system: HOP-62 NSCLC
[43] = test system: HCT-15 colon
[44] = test system: SK-MEL-2 melanoma
[45] = test system: LOX IMVI melanoma
[46] = test system: A498 renal
[47] = test system: SF-268 CNS
[48] = test system: MALME-3M melanoma
[49] = test system: ACHN renal
[50] = test system: KM12 colon
[51] = test system: NCI-H23 lung
[52] = test system: CCRF-CEM leukemia
[53] = test system: NCI-H460 lung
[54] = test system: SF-539 CNS
[55] = test system: SNB-75 CNS
[56] = test system: DU-145 prostate
[57] = test system: BT-549 breast
[58] = test system: K-562 leukemia

C[C@@H]1CCC2[C@@H](C)[C@@H](OCCO[C@H]3OC4O[C@@]5(C)CCC6[C@H](C)CCC([C@H]3C)[C@@]46OO5)OC3O[C@@]4(C)CCC1[C@]32OO4 (stereo partly drawn)
TGI [1]: > 100 µM
TGI [2]: > 100 µM
TGI [3]: > 100 µM
TGI [4]: > 100 µM
TGI [5]: > 100 µM
TGI [6]: > 100 µM
TGI [7]: > 100 µM
TGI [8]: > 100 µM
TGI [9]: > 100 µM
TGI [10]: > 100 µM
TGI [11]: > 100 µM
TGI [12]: > 100 µM
TGI [13]: 0.304 µM
TGI [14]: > 100 µM
TGI [15]: > 66.2 µM
TGI [16]: > 78.2 µM
TGI [17]: 3.14 µM
TGI [18]: > 100 µM
TGI [19]: > 100 µM
TGI [20]: > 100 µM
TGI [21]: > 100 µM
TGI [22]: > 100 µM
TGI [23]: > 100 µM
TGI [24]: > 100 µM
TGI [25]: > 100 µM
TGI [26]: > 100 µM
TGI [27]: > 100 µM
TGI [28]: > 100 µM
TGI [29]: 98.9 µM
TGI [30]: > 100 µM
TGI [31]: > 100 µM
TGI [32]: > 100 µM
TGI [33]: > 39.8 µM
TGI [34]: 2.07 µM
TGI [35]: > 100 µM
TGI [36]: > 100 µM
TGI [37]: > 100 µM
TGI [38]: > 100 µM
TGI [39]: > 95.8 µM
TGI [40]: > 42.3 µM
TGI [41]: > 57.7 µM
TGI [42]: > 100 µM
TGI [43]: > 100 µM
TGI [44]: 6.06 µM
TGI [45]: > 40.5 µM
TGI [46]: > 77.1 µM
TGI [47]: > 100 µM
TGI [48]: > 100 µM
TGI [49]: > 100 µM
TGI [50]: > 100 µM
TGI [51]: 68.9 µM
TGI [52]: > 100 µM
TGI [53]: > 100 µM
TGI [54]: > 100 µM
TGI [55]: > 100 µM

O=C1NC(=S)NNC12c1ccccc1-c1ccccc12
TGI [1]: > 10 µM
TGI [2]: > 10 µM
TGI [3]: > 10 µM
TGI [5]: > 10 µM
TGI [7]: > 10 µM
TGI [9]: > 10 µM
TGI [10]: > 10 µM
TGI [11]: > 10 µM
TGI [12]: > 10 µM
TGI [13]: > 10 µM
TGI [14]: > 10 µM
TGI [15]: > 10 µM
TGI [16]: > 10 µM
TGI [17]: > 10 µM
TGI [18]: > 10 µM
TGI [19]: > 10 µM
TGI [20]: > 10 µM
TGI [21]: > 10 µM
TGI [22]: > 10 µM
TGI [23]: > 10 µM
TGI [24]: > 10 µM
TGI [26]: > 10 µM
TGI [28]: > 10 µM
TGI [30]: > 10 µM
TGI [56]: > 10 µM
TGI [57]: > 10 µM
TGI [31]: > 10 µM
TGI [32]: > 10 µM
TGI [33]: > 10 µM
TGI [34]: > 10 µM
TGI [35]: > 10 µM
TGI [36]: > 10 µM
TGI [37]: > 10 µM
TGI [40]: > 10 µM
TGI [41]: > 10 µM
TGI [42]: > 10 µM
TGI [43]: > 10 µM
TGI [45]: > 10 µM
TGI [46]: 9.93 µM
TGI [47]: > 10 µM
TGI [48]: > 10 µM
TGI [58]: > 10 µM
TGI [50]: > 10 µM
TGI [51]: > 10 µM
TGI [52]: > 10 µM
TGI [53]: > 10 µM
TGI [54]: > 10 µM
TGI [55]: > 10 µM
